From PubChem BioAssay (NCI)
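All cell lines were grown in 96-well plates and treated with compound for 48 hours. Definition used: TGI = concentration required for complete inhibition of growth.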

Assays:
Test in all cases: NCI-60 cell line screen, 48 h
HCC-2998 colon = tested on: HCC-2998 colon
NCI-H226 lung = tested on: NCI-H226 lung
SK-MEL-2 melanoma = tested on: SK-MEL-2 melanoma
HOP-62 NSCLC = tested on: HOP-62 NSCLC
ACHN renal = tested on: ACHN renal
A549 NSCLC = tested on: A549 NSCLC
SF-295 CNS = tested on: SF-295 CNS
CAKI-1 renal = tested on: CAKI-1 renal
OVCAR-3 ovarian = tested on: OVCAR-3 ovarian
UACC-257 melanoma = tested on: UACC-257 melanoma
HT29 colon = tested on: HT29 colon
MDA-MB-231 breast = tested on: MDA-MB-231 breast
K-562 leukemia = tested on: K-562 leukemia
IGROV1 ovarian = tested on: IGROV1 ovarian
SK-MEL-28 melanoma = tested on: SK-MEL-28 melanoma
HCT-15 colon = tested on: HCT-15 colon
SN12C renal = tested on: SN12C renal
SK-OV-3 ovarian = tested on: SK-OV-3 ovarian
MDA-N = tested on: MDA-N
MALME-3M melanoma = tested on: MALME-3M melanoma
NCI-H460 lung = tested on: NCI-H460 lung
MDA-MB-435 = tested on: MDA-MB-435
T-47D breast = tested on: T-47D breast
LOX IMVI melanoma = tested on: LOX IMVI melanoma
SF-268 CNS = tested on: SF-268 CNS
OVCAR-5 ovarian = tested on: OVCAR-5 ovarian
EKVX NSCLC = tested on: EKVX NSCLC
A498 renal = tested on: A498 renal
SF-539 CNS = tested on: SF-539 CNS
NCI/ADR-RES ovarian = tested on: NCI/ADR-RES ovarian
RXF 393 renal = tested on: RXF 393 renal
TK-10 renal = tested on: TK-10 renal
HCT-116 colon = tested on: HCT-116 colon
OVCAR-4 ovarian = tested on: OVCAR-4 ovarian
M14 melanoma = tested on: M14 melanoma
MCF7 breast = tested on: MCF7 breast
SNB-19 CNS = tested on: SNB-19 CNS
HOP-92 NSCLC = tested on: HOP-92 NSCLC
HL-60(TB) leukemia = tested on: HL-60(TB) leukemia
CCRF-CEM leukemia = tested on: CCRF-CEM leukemia
MOLT-4 leukemia = tested on: MOLT-4 leukemia
DU-145 prostate = tested on: DU-145 prostate
UACC-62 melanoma = tested on: UACC-62 melanoma
NCI-H23 lung = tested on: NCI-H23 lung
U251 CNS = tested on: U251 CNS
OVCAR-8 ovarian = tested on: OVCAR-8 ovarian
SR leukemia = tested on: SR leukemia
RPMI-8226 leukemia = tested on: RPMI-8226 leukemia
KM12 colon = tested on: KM12 colon
BT-549 breast = tested on: BT-549 breast
SW-620 colon = tested on: SW-620 colon
HS 578T breast = tested on: HS 578T breast
SNB-75 CNS = tested on: SNB-75 CNS
PC-3 prostate = tested on: PC-3 prostate
UO-31 renal = tested on: UO-31 renal
SK-MEL-5 melanoma = tested on: SK-MEL-5 melanoma
786-0 renal = tested on: 786-0 renal

For `Cc1cc(S(=O)(=O)n2ccnc2Oc2cccc(Cl)c2)c(SSc2cc(Cl)c(C)cc2S(=O)(=O)n2ccnc2Oc2cccc(Cl)c2)cc1Cl`, which TGI (HCC-2998 colon) is on record?
The TGI was 53 µM.

What about the TGI (NCI-H226 lung) of the same compound?
Its TGI is 30.7 µM.

What about the TGI (SK-MEL-2 melanoma) of the same compound?
The TGI was 26.9 µM.

What about the TGI (HOP-62 NSCLC) of the same compound?
The TGI was 38.7 µM.

And the TGI (ACHN renal)?
Its TGI is greater than 32 µM.

What about the TGI (A549 NSCLC) of the same compound?
The TGI was greater than 100 µM.

And the TGI (SF-295 CNS)?
The TGI was greater than 46.9 µM.

What about the TGI (CAKI-1 renal) of the same compound?
The TGI was greater than 43.5 µM.

And the TGI (OVCAR-3 ovarian)?
Its TGI is greater than 100 µM.

What about the TGI (UACC-257 melanoma) of the same compound?
The TGI was greater than 100 µM.

What about the TGI (HT29 colon) of the same compound?
Its TGI is 48.5 µM.

What about the TGI (MDA-MB-231 breast) of the same compound?
The TGI was greater than 51.3 µM.

What about the TGI (K-562 leukemia) of the same compound?
Its TGI is greater than 100 µM.

What about the TGI (IGROV1 ovarian) of the same compound?
Its TGI is greater than 100 µM.

And the TGI (SK-MEL-28 melanoma)?
Its TGI is greater than 100 µM.

And the TGI (HCT-15 colon)?
Its TGI is greater than 100 µM.

What about the TGI (SN12C renal) of the same compound?
Its TGI is greater than 100 µM.

What about the TGI (SK-OV-3 ovarian) of the same compound?
Its TGI is greater than 92.5 µM.

What about the TGI (MDA-N) of the same compound?
The TGI was greater than 58.3 µM.

What about the TGI (MALME-3M melanoma) of the same compound?
The TGI was 41.1 µM.

And the TGI (NCI-H460 lung)?
Its TGI is greater than 71.1 µM.

What about the TGI (MDA-MB-435) of the same compound?
The TGI was 48.3 µM.

What about the TGI (T-47D breast) of the same compound?
Its TGI is greater than 67.2 µM.

And the TGI (LOX IMVI melanoma)?
Its TGI is greater than 100 µM.

What about the TGI (SF-268 CNS) of the same compound?
Its TGI is greater than 100 µM.

What about the TGI (OVCAR-5 ovarian) of the same compound?
The TGI was greater than 100 µM.

What about the TGI (EKVX NSCLC) of the same compound?
The TGI was greater than 100 µM.

And the TGI (A498 renal)?
Its TGI is 84.5 µM.

And the TGI (SF-539 CNS)?
The TGI was 37 µM.

And the TGI (NCI/ADR-RES ovarian)?
The TGI was 21.8 µM.

And the TGI (RXF 393 renal)?
Its TGI is 24.2 µM.

And the TGI (TK-10 renal)?
Its TGI is greater than 100 µM.

What about the TGI (HCT-116 colon) of the same compound?
Its TGI is greater than 60.7 µM.

And the TGI (OVCAR-4 ovarian)?
Its TGI is greater than 100 µM.

What about the TGI (M14 melanoma) of the same compound?
The TGI was greater than 42 µM.

What about the TGI (MCF7 breast) of the same compound?
Its TGI is greater than 29.3 µM.

And the TGI (SNB-19 CNS)?
Its TGI is greater than 100 µM.

And the TGI (HOP-92 NSCLC)?
The TGI was greater than 100 µM.

What about the TGI (HL-60(TB) leukemia) of the same compound?
Its TGI is 20.9 µM.

And the TGI (CCRF-CEM leukemia)?
The TGI was 10.7 µM.

What about the TGI (MOLT-4 leukemia) of the same compound?
The TGI was 35 µM.

What about the TGI (DU-145 prostate) of the same compound?
The TGI was greater than 78.7 µM.

What about the TGI (UACC-62 melanoma) of the same compound?
Its TGI is greater than 53.2 µM.

What about the TGI (NCI-H23 lung) of the same compound?
The TGI was greater than 100 µM.

What about the TGI (U251 CNS) of the same compound?
The TGI was 12.4 µM.

And the TGI (OVCAR-8 ovarian)?
Its TGI is greater than 41.8 µM.

And the TGI (SR leukemia)?
The TGI was greater than 100 µM.

And the TGI (RPMI-8226 leukemia)?
Its TGI is greater than 38.7 µM.

What about the TGI (KM12 colon) of the same compound?
The TGI was greater than 100 µM.

What about the TGI (BT-549 breast) of the same compound?
The TGI was 43 µM.

What about the TGI (SW-620 colon) of the same compound?
The TGI was greater than 100 µM.

What about the TGI (HS 578T breast) of the same compound?
Its TGI is 21.2 µM.

What about the TGI (SNB-75 CNS) of the same compound?
Its TGI is greater than 91.1 µM.

What about the TGI (PC-3 prostate) of the same compound?
The TGI was greater than 78.5 µM.

And the TGI (UO-31 renal)?
The TGI was greater than 100 µM.

What about the TGI (SK-MEL-5 melanoma) of the same compound?
The TGI was 23 µM.

And the TGI (786-0 renal)?
Its TGI is greater than 70 µM.
